Source: patent publication US6461997B1, “Triazole sulfones having herbicidal activity” (Monsanto Technology LLC, priority 1999, dated 2002)

What was measured:
ABUTH (velvetleaf) = assay: Pre-emergence herbicidal activity, warm season; assay type: in vivo, Abutilon theophrasti; details: GR80 = lowest tested rate (300, 100, 30, 10 g/ha) with 80% or greater inhibition; approx. 14 days after treating; 30/21° C.
Experimental: (§1) Tables 5 to 8 summarize results of tests conducted as described below to determine the pre-emergence herbicidal activity, in the form of a GR80 value, of illustrative compounds of this invention. […] Compounds of the invention were typically applied at rates of 300, 100, 30, and 10 g/ha. Where herbicidal activity was evident but 80% inhibition was not achieved at the highest rate tested, an asterisk (*) is shown in the following tables.
(§2) The pre-emergence tests were conducted by the following procedure. Topsoil was sieved to pass through a 1.27 cm screen. Fertilizer was added to the topsoil and the mixture was then sterilized by heating. The topsoil mixture was placed in a pot and compacted to a depth of 1.0 to 1.25 cm from the top of the pot. Seeds of each of several monocotyledonous and dicotyledonous annual plant species were placed on top of the soil. Additional soil was subsequently placed over the seeds to level-fill the pot. A known amount of each test compound dissolved or suspended in an appropriate organic solvent was diluted with a 50:50 mix of acetone and water and applied to the surface of the soil. After treatment the plants were placed in a greenhouse where they received 0.64 cm of overhead irrigation. All subsequent watering consisted of a light overhead mist and/or subirrigation as needed for germination and growth. Tables 5 and 6 below relate to warm season plant species which were placed after pre-emergence treatment in a greenhouse with a 30/21° C. day/night temperature regime. Tables 7 and 8 below relates to cool season plant species placed after pre-emergence treatment in a greenhouse or growth chamber with an 18/13° C. day/night temperature regime.
(§3) Approximately 14 days after planting and treating, the plants were observed and herbicidal efficacy recorded as percent inhibition by comparison with untreated plants.
(§4) The plant species usually regarded as weeds which were utilized in the tests are identified in the tables below according to the following legend, in which “d” indicates a dicotyledonous species and “m” a monocotyledonous species. All monocotyledonous species included in the tests herein are grasses.

[1] = test system: GALAP (catchweed bedstraw); assay: Pre-emergence herbicidal activity, cool season; assay type: in vivo, Galium aparine; details: lowest tested rate with 80% or greater inhibition; rates 300, 100, 30, 10 g/ha; about 14 days
Outline: (§5)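 GR80 values derive from percent inhibition relative to untreated plants, read roughly 14 days after sowing and pre-emergence soil-surface treatment (compound in 50:50 acetone/water; rates typically 10, 30, 100, 300 g/ha). Warm-season weeds grew at 30/21° C day/night, cool-season ones at 18/13° C; an asterisk marks activity without reaching 80% at the highest rate.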

[2] = test system: LAMPU (purple deadnettle); assay: Pre-emergence herbicidal activity, cool season; assay type: in vivo, Lamium purpureum; details: lowest tested rate with 80% or greater inhibition; rates 300, 100, 30, 10 g/ha; about 14 days
Outline: as §5

[3] = test system: VERPE (creeping speedwell); assay: Pre-emergence herbicidal activity, cool season; assay type: in vivo, Veronica persicaria; details: lowest tested rate with 80% or greater inhibition; rates 300, 100, 30, 10 g/ha; about 14 days
Outline: as §5

POLCO (wild buckwheat) = assay: Pre-emergence herbicidal activity, cool season; assay type: in vivo, Polygonum convolvulus; details: lowest tested rate with 80% or greater inhibition; rates 300, 100, 30, 10 g/ha; about 14 days
Outline: (§6)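 Under 18/13 °C (ALOMY, POLCO) or 30/21 °C (PANMI, DIGSA) day/night, pre-emergence soil-surface treatments at 300, 100, 30 and 10 g/ha were evaluated after roughly 14 days. GR80 reflects percent inhibition relative to untreated plants.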

[4] = test system: PANMI (wild proso millet); assay: Pre-emergence herbicidal activity, warm season; assay type: in vivo, Panicum miliaceum; details: GR80 = lowest tested rate (300, 100, 30, 10 g/ha) with 80% or greater inhibition; approx. 14 days after treating; 30/21° C.
Outline: as §6

SASKR (russian thistle) = assay: Pre-emergence herbicidal activity, cool season; assay type: in vivo, Salsola kali; details: lowest tested rate with 80% or greater inhibition; rates 300, 100, 30, 10 g/ha; about 14 days
Outline: as §5

SINAR (wild mustard) = assay: Pre-emergence herbicidal activity, cool season; assay type: in vivo, Sinapis arvensis; details: lowest tested rate with 80% or greater inhibition; rates 300, 100, 30, 10 g/ha; about 14 days
Outline: as §5

SOLNI (black nightshade) = assay: Pre-emergence herbicidal activity, warm season; assay type: in vivo, Solanum nigrum; details: GR80 = lowest tested rate (300, 100, 30, 10 g/ha) with 80% or greater inhibition; approx. 14 days after treating; 30/21° C.
Experimental: as §1, §2, §3, §4

STEME (common chickweed) = assay: Pre-emergence herbicidal activity, cool season; assay type: in vivo, Stellaria media; details: lowest tested rate with 80% or greater inhibition; rates 300, 100, 30, 10 g/ha; about 14 days
Outline: as §5

ECHCG (barnyardgrass) = assay: Pre-emergence herbicidal activity, warm season; assay type: in vivo, Echinochloa crus-galli; details: GR80 = lowest tested rate (300, 100, 30, 10 g/ha) with 80% or greater inhibition; approx. 14 days after treating; 30/21° C.
Outline: as §5

SETFA (giant foxtail) = assay: Pre-emergence herbicidal activity, warm season; assay type: in vivo, Setaria faberi; details: GR80 = lowest tested rate (300, 100, 30, 10 g/ha) with 80% or greater inhibition; approx. 14 days after treating; 30/21° C.
Experimental: as §1, §2, §3, §4

SETVI (green foxtail) = assay: Pre-emergence herbicidal activity, cool season; assay type: in vivo, Setaria viridis; details: GR80 = lowest tested rate (300, 100, 30, 10 g/ha) with 80% or greater inhibition; approx. 14 days after treating; 18/13° C.
Outline: as §5

[5] = test system: AGSST (creeping bentgrass); assay: Pre-emergence herbicidal activity, cool season; assay type: in vivo, Agrostis stolonifera; details: GR80 = lowest tested rate (300, 100, 30, 10 g/ha) with 80% or greater inhibition; approx. 14 days after treating; 18/13° C.
Outline: as §5

[6] = test system: SORHA (johnsongrass (seedling)); assay: Pre-emergence herbicidal activity, warm season; assay type: in vivo, Sorghum halepense; details: GR80 = lowest tested rate (300, 100, 30, 10 g/ha) with 80% or greater inhibition; approx. 14 days after treating; 30/21° C.
Experimental: as §1, §2, §3, §4

[7] = test system: BRAPP (broadleaf signalgrass); assay: Pre-emergence herbicidal activity, warm season; assay type: in vivo, Brachiaria platyphylla; details: GR80 = lowest tested rate (300, 100, 30, 10 g/ha) with 80% or greater inhibition; approx. 14 days after treating; 30/21° C.
Experimental: as §1, §2, §3, §4

DIGSA (large crabgrass) = assay: Pre-emergence herbicidal activity, warm season; assay type: in vivo, Digitaria sanguinalis; details: GR80 = lowest tested rate (300, 100, 30, 10 g/ha) with 80% or greater inhibition; approx. 14 days after treating; 30/21° C.
Experimental: as §1, §2, §3, §4

SORVU (shattercane) = assay: Pre-emergence herbicidal activity, warm season; assay type: in vivo, Sorghum vulgare; details: GR80 = lowest tested rate (300, 100, 30, 10 g/ha) with 80% or greater inhibition; approx. 14 days after treating; 30/21° C.
Experimental: as §1, §2, §3, §4

[8] = test system: CHEAL (common lambsquarters); assay: Pre-emergence herbicidal activity, warm season; assay type: in vivo, Chenopodium album; details: GR80 = lowest tested rate (300, 100, 30, 10 g/ha) with 80% or greater inhibition; approx. 14 days after treating; 30/21° C.
Experimental: as §1, §2, §3, §4

POROL (common purslane) = assay: Pre-emergence herbicidal activity, warm season; assay type: in vivo, Portulaca oleracea; details: GR80 = lowest tested rate (300, 100, 30, 10 g/ha) with 80% or greater inhibition; approx. 14 days after treating; 30/21° C.
Experimental: as §1, §2, §3, §4

DATST (jimsonweed) = assay: Pre-emergence herbicidal activity, warm season; assay type: in vivo, Datura stramonium; details: GR80 = lowest tested rate (300, 100, 30, 10 g/ha) with 80% or greater inhibition; approx. 14 days after treating; 30/21° C.
Experimental: as §1, §2, §3, §4

ALOMY (blackgrass) = assay: Pre-emergence herbicidal activity, cool season; assay type: in vivo, Alopecurus myosuroides; details: GR80 = lowest tested rate (300, 100, 30, 10 g/ha) with 80% or greater inhibition; approx. 14 days after treating; 18/13° C.
Experimental: as §1, §2, §3, §4

LOLMG (annual ryegrass) = assay: Pre-emergence herbicidal activity, cool season; assay type: in vivo, Lolium multiflorum; details: GR80 = lowest tested rate (300, 100, 30, 10 g/ha) with 80% or greater inhibition; approx. 14 days after treating; 18/13° C.
Experimental: as §1, §2, §3, §4

Row | Structure (SMILES) | Pre-emergence activity (GR80) ABUTH (ABUTH (velvetleaf)) [g/ha] | Pre-emergence activity GR80, GALAP [1] | Pre-emergence activity GR80, LAMPU [2] | Pre-emergence activity GR80, VERPE [3] | Pre-emergence activity GR80, POLCO (POLCO (wild buckwheat)) | Pre-emergence activity GR80, SASKR (SASKR (russian thistle)) | Pre-emergence activity GR80, SINAR (SINAR (wild mustard)) | Pre-emergence activity GR80, STEME (STEME (common chickweed)) | Pre-emergence activity (GR80) SETVI (SETVI (green foxtail)) [g/ha] | also measured
1 | CN(Cc1ccccc1)C(=O)n1cnc(S(=O)(=O)C(F)(F)Br)n1 [Example 44] | 300 | [empty] | [empty] | 100 g/ha | [empty] | [empty] | [empty] | [empty] |  | Pre-emergence activity (GR80) PANMI [4]: 300 g/ha; Pre-emergence activity (GR80) SOLNI (SOLNI (black nightshade)): 30 g/ha
2 | CCSC(F)(F)S(=O)(=O)c1ncn(C(=O)N(C)C2CCCCC2)n1 [Example 55] | 300 | [empty] | [empty] | [empty] | 300 g/ha | [empty] | [empty] | [empty] | 300 | Pre-emergence activity (GR80) ECHCG (ECHCG (barnyardgrass)): 300 g/ha; Pre-emergence activity (GR80) SETFA (SETFA (giant foxtail)): 300 g/ha; Pre-emergence activity (GR80) PANMI [4]: 100 g/ha; Pre-emergence activity (GR80) AGSST [5]: 300 g/ha; Pre-emergence activity (GR80) SORHA [6]: 300 g/ha; Pre-emergence activity (GR80) BRAPP [7]: 300 g/ha; Pre-emergence activity (GR80) DIGSA (DIGSA (large crabgrass)): 300 g/ha; Pre-emergence activity (GR80) SOLNI (SOLNI (black nightshade)): 300 g/ha; Pre-emergence activity (GR80) SORVU (SORVU (shattercane)): 300 g/ha; Pre-emergence activity (GR80) CHEAL [8]: 300 g/ha; Pre-emergence activity (GR80) POROL (POROL (common purslane)): 300 g/ha
3 | CCSC(F)(F)S(=O)(=O)c1ncn(C(=O)N(C)Cc2ccccc2)n1 [Example 56] |  | [empty] | [empty] | [empty] | [empty] | [empty] | [empty] | [empty] | 100 | Pre-emergence activity (GR80) AGSST [5]: 100 g/ha; Pre-emergence activity (GR80) DATST (DATST (jimsonweed)): 300 g/ha
4 | CCSC(F)(F)S(=O)(=O)c1ncn(C(=O)N(C)OC)n1 [Example 57] |  | 300 g/ha | [empty] | 10 g/ha | 100 g/ha | 30 g/ha | 30 g/ha | 30 g/ha | 300 | Pre-emergence activity (GR80) ALOMY (ALOMY (blackgrass)): 300 g/ha; Pre-emergence activity (GR80) LOLMG (LOLMG (annual ryegrass)): 30 g/ha; Pre-emergence activity (GR80) DIGSA (DIGSA (large crabgrass)): 300 g/ha
5 | CCSC(F)(F)S(=O)(=O)c1ncn(C(=S)N(CC)CC)n1 [Example 58] |  | 300 g/ha | 300 g/ha | 300 g/ha | 300 g/ha | 300 g/ha | [empty] | 300 g/ha | 300 | Pre-emergence activity (GR80) DATST (DATST (jimsonweed)): 300 g/ha; Pre-emergence activity (GR80) CHEAL [8]: 300 g/ha
6 | C#CCN(C)C(=O)n1cnc(S(=O)(=O)C(F)(F)C(F)F)n1 [Example 66] | 300 | [empty] | [empty] | 100 g/ha | 300 g/ha | 300 g/ha | [empty] | [empty] |  | 
7 | CON(C)C(=O)n1cnc(S(=O)(=O)C(F)(F)Cl)n1 [Example 93] | 100 | [empty] | [empty] | 300 g/ha | [empty] | [empty] | [empty] | [empty] |  | 
